Entries after “also recorded” stand apart in the source; their conditions may differ. Each block holds one molecule with its values, some of them ahead of it.
What was measured:
Type in all cases: physicochemical
[1] = Stability differential scanning calorimetry (DSC) test; settings: rate of temperature rise 10.00° C./min
Protocol: 1. Stability Differential Scanning Calorimetry (DSC) Test
Instrument: NETZSCH DSC 204 type differential thermal analyzer
Rate of temperature rise: 10.00° C./min

[2] = Crystal influence factor test (high temperature, high humidity, illumination, 15 days); settings: high-humidity and illumination conditions for 15 days
Excerpt: 2. Crystal Influence Factor Test

[3] = Accelerated lofting test; set-up: Maximum individual impurity / Loss on drying: unit not given here; settings: 40±2° C., RH 75%±5%; for Loss on drying: limit ≤1.0; for Maximum individual impurity: limit ≤2.50; for Total impurity: limit ≤4.0%; for Methanesulfonic acid (%): limit ≤15.0-15.8%; for Content (%): should not be less than 78.0%
Protocol: 3. Accelerated Lofting Test
A sample of the crystal form B of the monomethanesulfonate of the compound shown in formula I was placed in a petri dish and was sampled and tested at 0 hour, 1 month, 2 months, 3 months, and 6 months respectively at a temperature of 40±2° C. and a relative humidity of 75%±5%, with the results shown in Table 1: […]

[4] = Long-term lofting experiments; settings: 25±5° C., RH 60%±10%; for Loss on diying: limit ≤1.0; for Maximum individual impurity: limit ≤2.50; for Total impurity: limit ≤4.0%; for Methanesulfonic acid (%): limit ≤15.0-15.8%; for Content (%): should not be less than 78.0%
Protocol: 4. Long-Term Lofting Experiments
A sample of the crystal form B of the monomethanesulfonate of the compound shown in formula I was placed in a petri dish under the conditions of the temperature being 25±5° C. and the relative humidity being 60%±10% and was sampled and tested at 0 hour, 3 months, and 6 months respectively, with the results shown in Table 2: […]

- DSC peak (stability of heat exchange range) [1]: a single peak value is observed
Compound: [2H]C([2H])([2H])N(C)CCN(C)c1cc(OC)c(Nc2nccc(-c3cn4c5c(cccc35)CCC4)n2)cc1NC(=O)C=C [crystal form A]
- Crystal transformation (X-ray diffraction pattern) [2]: can be converted into the crystal form B of the monomethanesulfonate under the high-temperature or high-humidity condition; also recorded: converted to the crystal form B of the monomethanesulfonate at high temperature and high humidity

- Loss on drying ([3]; 0 month): 0.08
- Maximum individual impurity ([3]; 0 month): 1.62
- Total impurity ([3]; 0 month): 2.55%
- Methanesulfonic acid (%) ([3]; 0 month): 15.5%
- Content (%) ([3]; 0 month): 80.5%
- Loss on drying ([3]; 1 month): 0.03
- Maximum individual impurity ([3]; 1 month): 1.87
- Total impurity ([3]; 1 month): 3.12%
- Methanesulfonic acid (%) ([3]; 1 month): 15.2%
- Content (%) ([3]; 1 month): 82.2%
- Loss on drying ([3]; 2 months): 0.03
- Maximum individual impurity ([3]; 2 months): 1.42
- Total impurity ([3]; 2 months): 2.72%
- Methanesulfonic acid (%) ([3]; 2 months): 15.4%
- Content (%) ([3]; 2 months): 82.3%
- Loss on drying ([3]; 3 months): 0.03
- Maximum individual impurity ([3]; 3 months): 1.62
- Total impurity ([3]; 3 months): 2.72%
- Methanesulfonic acid (%) ([3]; 3 months): 15.4%
- Content (%) ([3]; 3 months): 79.5%
- Crystal form by X-ray powder diffraction pattern compared with before the experiments ([3]; 6 months): the crystal form was not changed
- Loss on drying ([3]; 6 months): 0.14
- Maximum individual impurity ([3]; 6 months): 1.61
- Total impurity ([3]; 6 months): 2.74%
- Methanesulfonic acid (%) ([3]; 6 months): 15.4%
- Content (%) ([3]; 6 months): 80.8%
- Loss on diying ([4]; 0 month): 0.08
- Maximum individual impurity ([4]; 0 month): 1.62
- Total impurity ([4]; 0 month): 2.55%
- Methanesulfonic acid (%) ([4]; 0 month): 15.5%
- Content (%) ([4]; 0 month): 80.5%
- Loss on diying ([4]; 3 months): 0.08
- Maximum individual impurity ([4]; 3 months): 1.65
- Total impurity ([4]; 3 months): 2.78%
- Methanesulfonic acid (%) ([4]; 3 months): 15.4%
- Content (%) ([4]; 3 months): 80.0%
- Crystal form by X-ray powder diffraction pattern compared with before the experiments ([4]; 6 months): the crystal form was not changed
- Loss on diying ([4]; 6 months): 0.6
- Maximum individual impurity ([4]; 6 months): 1.48
- Total impurity ([4]; 6 months): 2.50%
- Methanesulfonic acid (%) ([4]; 6 months): 15.4%
- Content (%) ([4]; 6 months): 82.3%
Compound: [2H]C([2H])([2H])N(C)CCN(C)c1cc(OC)c(Nc2nccc(-c3cn4c5c(cccc35)CCC4)n2)cc1NC(=O)C=C [crystal form B]
- Change of all investigation items ([3]; up to 6 months): all investigation items have no obvious change
- Change of all investigation items ([4]; up to 6 months): all investigation items have no obvious change
